Results reported in ChEMBL document CHEMBL5107965, “The progress of small-molecules and degraders against BCR-ABL for the treatment of CML” (Eur J Med Chem, 2022).
≈ marks a conversion by molar mass, not a printed value. One block for each molecule: values may come before it.

Key:
K562 [1] = assay: Antiproliferative activity against imatinib resistant human K562 cells assessed as cell growth inhibition measured after 48 to 72 hrs by MTS assay; type: functional, cell-based
Bcr/Abl fusion protein [2] = target: T1, Bcr/Abl fusion protein (Homo sapiens, UniProt P00519); assay: Inhibition of BCR-ABL (unknown origin); type: protein assay
K562 [3] = assay: Antiproliferative activity against human K562 cells assessed as cell growth inhibition; type: functional, cell-based
[4] = Cmax in mouse at 10 mg/kg, po measured after upto 24 hrs by LC-MS/MS analysis; type: ADME, organism-based; parameters: dose 10 mg/kg, time < 24 hrs, route po; details: in vivo
K562 [5] = assay: Antiproliferative activity against human K562 cells assessed as cell growth inhibition measured after 24 hrs; type: functional, cell-based; details: K562, 24 h
[6] = Half life in mouse at 10 mg/kg, po measured after upto 24 hrs by LC-MS/MS analysis; type: ADME, organism-based; details: in vivo
[7] = target: von Hippel-Lindau disease tumor suppressor/Tyrosine-protein kinase ABL1/Breakpoint cluster region protein (Homo sapiens, UniProt P00519+P11274+P40337); assay: Protac activity at VHL/BCR-ABL in human K562 cells assessed as reduction in BCR-ABL protein levels by immunoblotting analysis; type: cell-based
K562 [8] = assay: Cytotoxicity against human K562 cells assessed as cell growth inhibition measured after 72 hrs by MTT assay; type: functional, cell-based; details: K562, 72 h
K562 [9] = assay: Antiproliferative activity against imatinib resistant human K562 cells harbouring ABL-T315I mutant assessed as cell growth inhibition by XTT assay; type: functional
K562 [10] = assay: Antiproliferative activity against imatinib resistant human K562 cells harbouring wild type ABL assessed as cell growth inhibition by XTT assay; type: functional
[11] = Inhibition of BCR-ABL Y253H mutant phosphorylation in mouse BaF3 cells incubated for 4 hrs by immunoblotting analysis; type: cell-based; details: BaF3, 4 h
[12] = Plasma concentration in mouse at 30 mg/kg, measured after 1 hr; type: ADME, organism-based
BCR/ABL1 [13] = target: BCR/ABL1 (Mus musculus, UniProt P00520, E255V); assay: Inhibition of BCR-ABL E255V mutant phosphorylation in mouse BaF3 cells incubated for 4 hrs by immunoblotting analysis; type: cell-based
[14] = Drug concentration in brain of mouse at 30 mg/kg, measured after 1 hr; type: ADME, organism-based; details: read-out: Ct
[15] = Inhibition of BCR-ABL L248R mutant phosphorylation in mouse BaF3 cells incubated for 4 hrs by immunoblotting analysis; type: cell-based; details: BaF3, 4 h
BCR/ABL1 [16] = target: BCR/ABL1 (Mus musculus, UniProt P00520, T315I); assay: Inhibition of BCR-ABL T315I mutant phosphorylation in mouse BaF3 cells incubated for 4 hrs by immunoblotting analysis; type: cell-based
[17] = Ratio of drug concentration in brain to plasma of mouse at 30 mg/kg, measured after 1 hr; type: ADME, organism-based; details: read-out: BPR
Bcr/Abl fusion protein [18] = target: T1, Bcr/Abl fusion protein; assay: Inhibition of wild type BCR-ABL phosphorylation in mouse BaF3 cells incubated for 4 hrs by immunoblotting analysis; type: cell-based
HL-60 = assay: animal or person; details: Mus musculus, HL-60, 528 h, read-out: TGI
Description: Antitumor activity against human HL-60 cells xenografted in SCID mouse assessed as tumor growth inhibition at 30 mg/kg, iv measured after 22 days relative to control

[19] = Inhibition of Aurora kinase (unknown origin); parameters: species or system Homo sapiens
KCL-22 = assay: Antiproliferative activity against human KCL-22 cells assessed as cell growth inhibition measured after 24 hrs by WST-8 assay; type: functional, cell-based; details: KCL-22, 24 h
[20] = target: Tyrosine-protein kinase ABL1 (Homo sapiens, UniProt P00519); assay: Binding affinity to human recombinant His-tagged full length ABL1 expressed in baculovirus expression system by TR-FRET assay
K562 [21] = assay: Antiproliferative activity against human K562 cells assessed as cell growth inhibition measured after 24 hrs by WST-8 assay; type: functional, cell-based; details: K562, 24 h
KU812 cell line = assay: Antiproliferative activity against human KU812 cell line assessed as cell growth inhibition measured after 24 hrs by WST-8 assay; type: functional, cell-based; details: KU812, 24 h
[22] = target: Protein cereblon/Tyrosine-protein kinase ABL1/Breakpoint cluster region protein (Homo sapiens, UniProt P00519+P11274+Q96SW2); assay: Protac activity at CRBN/BCR-ABL in human K562 cells assessed as reduction in BCR-ABL protein levels incubated for 6 hrs by Western blotting analysis; type: cell-based
BaF3 [23] = assay: Antiproliferative activity against mouse BaF3 cells harbouring ABL-T315I mutant assessed as cell growth inhibition measured after 72 hrs by MTT assay; type: functional, cell-based; details: BaF3, 72 h
BaF3 [24] = assay: cells; details: Mus musculus, BaF3, 72 h
Description: Antiproliferative activity against mouse BaF3 cells harbouring wild type ABL assessed as cell growth inhibition measured after 72 hrs by MTT assay

T1 sequence (P00519 whole entry, the tested form may be a part): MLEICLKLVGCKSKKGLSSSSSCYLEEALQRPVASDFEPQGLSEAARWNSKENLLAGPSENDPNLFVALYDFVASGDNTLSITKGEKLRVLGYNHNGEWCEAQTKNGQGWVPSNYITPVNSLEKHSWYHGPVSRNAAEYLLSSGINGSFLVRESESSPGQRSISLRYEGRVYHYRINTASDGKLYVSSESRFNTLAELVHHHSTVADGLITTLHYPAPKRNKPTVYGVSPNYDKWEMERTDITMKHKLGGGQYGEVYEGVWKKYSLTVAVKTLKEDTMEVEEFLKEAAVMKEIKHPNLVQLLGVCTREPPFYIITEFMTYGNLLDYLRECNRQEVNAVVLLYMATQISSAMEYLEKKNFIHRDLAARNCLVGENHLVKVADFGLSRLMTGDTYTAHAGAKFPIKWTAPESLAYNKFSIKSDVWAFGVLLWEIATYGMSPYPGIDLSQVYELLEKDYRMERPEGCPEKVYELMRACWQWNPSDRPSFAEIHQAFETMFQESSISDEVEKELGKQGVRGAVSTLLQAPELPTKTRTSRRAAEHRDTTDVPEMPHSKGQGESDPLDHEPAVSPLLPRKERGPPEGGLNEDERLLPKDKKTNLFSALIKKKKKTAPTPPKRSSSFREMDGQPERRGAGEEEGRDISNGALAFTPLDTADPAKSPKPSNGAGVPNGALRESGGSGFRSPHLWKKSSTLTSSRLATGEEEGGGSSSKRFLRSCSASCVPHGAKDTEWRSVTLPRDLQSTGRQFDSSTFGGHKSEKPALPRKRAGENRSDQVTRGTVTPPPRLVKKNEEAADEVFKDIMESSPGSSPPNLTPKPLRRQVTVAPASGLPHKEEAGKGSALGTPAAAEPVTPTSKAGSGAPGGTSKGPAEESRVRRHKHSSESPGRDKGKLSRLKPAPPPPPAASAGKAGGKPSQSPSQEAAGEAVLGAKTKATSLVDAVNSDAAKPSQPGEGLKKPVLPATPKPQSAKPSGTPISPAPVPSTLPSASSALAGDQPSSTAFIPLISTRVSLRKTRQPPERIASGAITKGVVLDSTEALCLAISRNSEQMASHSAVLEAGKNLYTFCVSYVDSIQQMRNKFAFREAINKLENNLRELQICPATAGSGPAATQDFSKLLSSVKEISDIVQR
T1 sequence (P11274 whole entry, further chain, the tested form may be a part): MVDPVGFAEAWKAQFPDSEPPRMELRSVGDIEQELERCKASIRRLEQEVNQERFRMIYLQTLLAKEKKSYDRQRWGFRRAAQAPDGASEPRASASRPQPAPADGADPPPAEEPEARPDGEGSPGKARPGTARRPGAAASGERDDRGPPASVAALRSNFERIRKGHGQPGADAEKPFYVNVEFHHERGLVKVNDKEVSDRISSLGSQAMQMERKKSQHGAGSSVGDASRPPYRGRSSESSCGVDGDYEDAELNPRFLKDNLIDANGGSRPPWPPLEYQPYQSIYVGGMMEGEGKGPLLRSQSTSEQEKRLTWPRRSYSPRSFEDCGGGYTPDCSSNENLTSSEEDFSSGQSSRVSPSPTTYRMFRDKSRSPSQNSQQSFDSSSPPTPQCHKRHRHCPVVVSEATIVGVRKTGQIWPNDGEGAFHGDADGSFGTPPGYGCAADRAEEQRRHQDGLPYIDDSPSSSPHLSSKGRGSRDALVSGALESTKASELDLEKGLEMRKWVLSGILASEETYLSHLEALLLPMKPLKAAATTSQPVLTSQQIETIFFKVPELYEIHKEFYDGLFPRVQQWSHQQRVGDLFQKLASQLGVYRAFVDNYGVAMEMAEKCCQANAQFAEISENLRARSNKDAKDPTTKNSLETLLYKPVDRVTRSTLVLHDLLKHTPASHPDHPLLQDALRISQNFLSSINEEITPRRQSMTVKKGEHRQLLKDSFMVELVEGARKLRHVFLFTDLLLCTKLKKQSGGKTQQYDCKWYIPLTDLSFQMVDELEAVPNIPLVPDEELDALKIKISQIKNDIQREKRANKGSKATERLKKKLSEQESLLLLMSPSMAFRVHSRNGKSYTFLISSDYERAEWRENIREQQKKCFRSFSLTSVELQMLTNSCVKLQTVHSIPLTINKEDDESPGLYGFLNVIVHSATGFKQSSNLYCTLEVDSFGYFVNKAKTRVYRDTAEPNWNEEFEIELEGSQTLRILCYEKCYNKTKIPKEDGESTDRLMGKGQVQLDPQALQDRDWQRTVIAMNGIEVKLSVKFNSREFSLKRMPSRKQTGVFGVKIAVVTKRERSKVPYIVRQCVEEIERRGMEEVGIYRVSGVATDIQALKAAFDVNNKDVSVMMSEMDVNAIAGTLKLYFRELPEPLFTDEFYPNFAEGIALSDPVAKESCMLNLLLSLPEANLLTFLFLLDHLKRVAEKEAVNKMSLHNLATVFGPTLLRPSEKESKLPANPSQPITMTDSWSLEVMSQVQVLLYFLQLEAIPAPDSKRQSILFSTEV
Sequence of BCR/ABL1 (Mus musculus, UniProt P00520, E255V) (P00520 whole entry E255V, looked up): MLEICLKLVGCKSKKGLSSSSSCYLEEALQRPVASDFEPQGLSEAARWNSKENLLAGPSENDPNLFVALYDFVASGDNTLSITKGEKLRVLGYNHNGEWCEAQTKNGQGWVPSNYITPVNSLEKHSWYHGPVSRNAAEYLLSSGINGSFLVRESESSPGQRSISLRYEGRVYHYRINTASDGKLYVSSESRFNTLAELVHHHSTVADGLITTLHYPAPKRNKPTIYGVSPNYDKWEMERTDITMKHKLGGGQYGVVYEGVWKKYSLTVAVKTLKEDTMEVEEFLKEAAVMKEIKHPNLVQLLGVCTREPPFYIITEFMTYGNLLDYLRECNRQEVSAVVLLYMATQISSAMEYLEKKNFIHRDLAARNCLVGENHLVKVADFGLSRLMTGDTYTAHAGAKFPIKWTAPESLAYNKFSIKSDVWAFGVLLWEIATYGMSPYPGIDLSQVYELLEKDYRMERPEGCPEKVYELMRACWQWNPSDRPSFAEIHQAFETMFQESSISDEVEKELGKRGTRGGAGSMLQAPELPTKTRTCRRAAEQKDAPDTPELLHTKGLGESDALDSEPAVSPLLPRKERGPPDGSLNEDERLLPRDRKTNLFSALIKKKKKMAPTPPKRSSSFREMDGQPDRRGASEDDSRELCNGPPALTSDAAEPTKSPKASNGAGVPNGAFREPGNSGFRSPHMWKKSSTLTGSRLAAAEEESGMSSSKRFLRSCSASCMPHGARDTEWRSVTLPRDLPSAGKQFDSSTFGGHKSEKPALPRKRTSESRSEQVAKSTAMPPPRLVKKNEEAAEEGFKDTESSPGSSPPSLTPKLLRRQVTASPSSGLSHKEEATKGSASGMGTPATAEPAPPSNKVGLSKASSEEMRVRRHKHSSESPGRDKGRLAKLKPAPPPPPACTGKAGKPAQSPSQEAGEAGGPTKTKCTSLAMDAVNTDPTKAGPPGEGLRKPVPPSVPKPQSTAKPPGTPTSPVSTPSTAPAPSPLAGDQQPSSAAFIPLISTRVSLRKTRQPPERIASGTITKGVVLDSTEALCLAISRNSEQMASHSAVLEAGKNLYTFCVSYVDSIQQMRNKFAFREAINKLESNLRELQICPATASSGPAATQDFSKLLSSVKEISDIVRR
Sequence of von Hippel-Lindau disease tumor suppressor/Tyrosine-protein kinase ABL1/Breakpoint cluster region protein (P00519 whole entry): as the sequence (P00519 whole entry, the tested form may be a part) above
Sequence of von Hippel-Lindau disease tumor suppressor/Tyrosine-protein kinase ABL1/Breakpoint cluster region protein (P11274 whole entry): as the sequence (P11274 whole entry, further chain, the tested form may be a part) above
Sequence of von Hippel-Lindau disease tumor suppressor/Tyrosine-protein kinase ABL1/Breakpoint cluster region protein (P40337 whole entry): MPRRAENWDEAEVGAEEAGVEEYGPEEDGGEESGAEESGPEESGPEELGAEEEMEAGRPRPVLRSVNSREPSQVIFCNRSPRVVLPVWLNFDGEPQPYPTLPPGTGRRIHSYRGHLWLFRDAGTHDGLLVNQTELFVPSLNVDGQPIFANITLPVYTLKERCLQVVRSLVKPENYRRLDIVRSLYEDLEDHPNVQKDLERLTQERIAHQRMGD
Sequence of Tyrosine-protein kinase ABL1 (P00519 whole entry): as the sequence (P00519 whole entry, the tested form may be a part) above
Sequence of Protein cereblon/Tyrosine-protein kinase ABL1/Breakpoint cluster region protein (P00519 whole entry): as the sequence (P00519 whole entry, the tested form may be a part) above
Sequence of Protein cereblon/Tyrosine-protein kinase ABL1/Breakpoint cluster region protein (P11274 whole entry): as the sequence (P11274 whole entry, further chain, the tested form may be a part) above
Sequence of Protein cereblon/Tyrosine-protein kinase ABL1/Breakpoint cluster region protein (Q96SW2 whole entry): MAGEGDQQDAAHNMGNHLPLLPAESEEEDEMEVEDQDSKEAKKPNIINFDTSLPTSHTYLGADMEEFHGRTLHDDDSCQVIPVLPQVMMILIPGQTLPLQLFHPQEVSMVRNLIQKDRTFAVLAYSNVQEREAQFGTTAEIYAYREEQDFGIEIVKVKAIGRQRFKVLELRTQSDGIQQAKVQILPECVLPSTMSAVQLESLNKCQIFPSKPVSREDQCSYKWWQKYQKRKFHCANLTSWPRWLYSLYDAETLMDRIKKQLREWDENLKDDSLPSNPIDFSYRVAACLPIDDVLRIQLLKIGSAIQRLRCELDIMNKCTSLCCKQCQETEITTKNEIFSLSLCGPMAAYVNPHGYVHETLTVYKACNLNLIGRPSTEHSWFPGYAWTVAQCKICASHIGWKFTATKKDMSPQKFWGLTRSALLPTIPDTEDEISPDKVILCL
Sequence of BCR/ABL1 (Mus musculus, UniProt P00520, T315I) (P00520 whole entry T315I, looked up): as the sequence (P00520 whole entry E255V, looked up) above, with V255E, T315I counted along it

SMILES: CC(C)=CCC[C@]1(C)C=Cc2c(O)c3c(c(CC=C(C)C)c2O1)O[C@]12C(=C[C@@H]4C[C@H]1C(C)(C)O[C@@]2(C/C=C(/C)C(=O)O)C4=O)C3=O [GAMBOGIC ACID]
IC50 (K562 [1]): 620 nM

IC50 (Bcr/Abl fusion protein [2]): 1.2 nM
SMILES: Cc1cn(-c2cc(NC(=O)c3ccc(C)c(Nc4nccc(-c5cnccn5)n4)c3)cc(C(F)(F)F)c2)cn1 [RADOTINIB]

SMILES: COC(=O)C[C@](O)(CCCC(C)(C)O)C(=O)O[C@@H]1C(OC)=C[C@]23CCCN2CCc2cc4c(cc2[C@H]13)OCO4 [OMACETAXINE MEPESUCCINATE]
IC50 (K562 [3]): 0.0439 µg/mL (≈ 0.0804 µM)

Cmax [4]: 536 ng/mL | IC50 (K562 [5]): 169 nM | half-life [6]: 3.67 h | DC50 [7]: 30 nM
SMILES: Cc1ncsc1-c1ccc(CNC(=O)[C@@H]2C[C@@H](O)CN2C(=O)[C@@H](NC(=O)COCCNc2ccc(C(=O)Nc3ccc(OC(F)(F)Cl)cc3)cc2-c2cc[nH]n2)C(C)(C)C)cc1

SMILES: Cc1ccc(C(=O)Nc2ccc(CN3CCN(C)CC3)c(C(F)(F)F)c2)cc1C#Cc1nnc2ccccn12 [VAMOTINIB]
IC50 (K562 [8]): 1 nM

GI50 (K562 [9]): 270 nM | GI50 (K562 [10]): 270 nM
SMILES: O=C(c1ccc(/C=C/c2n[nH]c3ccccc23)cc1)N1CCNCC1 [KW-2449]

IC50 [11]: 154 nM | concentration at 1 h [12]: 4800 ng/mL | IC50 (BCR/ABL1 [13]): 165 nM | concentration at 1 h [14]: 1900 ng/g | IC50 [15]: 167 nM | IC50 (BCR/ABL1 [16]): 1970 nM | Kp at 1 h [17]: 0.4 | IC50 (Bcr/Abl fusion protein [18]): 0.9 nM
SMILES: Cc1ccc(C(=O)NNC(=O)c2c(C)cccc2Cl)cc1C#Cc1cnc2ccccc2c1 [VODOBATINIB]

SMILES: CO[C@H](C(=O)N1Cc2[nH]nc(NC(=O)c3ccc(N4CCN(C)CC4)cc3)c2C1)c1ccccc1
inhibition in vivo at 30 mg/kg (HL-60): 98% | IC50 [19]: 13 nM

IC50 [20]: 0.54 nM | IC50 (K562 [21]): 8.92 nM | DC50 [22]: 10 nM
SMILES: CN[C@@H](C)C(=O)N[C@H](C(=O)N1CCC[C@H]1c1nc(C(=O)c2cccc(OCCCOCC(=O)N3CCN(c4cc(Nc5ncc(C(=O)Nc6c(C)cccc6Cl)s5)nc(C)n4)CC3)c2)cs1)C1CCCCC1
IC50 (KCL-22): 8.06 nM | IC50 (KU812 cell line): 6.72 nM

IC50 (BaF3 [23]): 11 nM | IC50 (BaF3 [24]): 13 nM
SMILES: O=C(Nc1c[nH]nc1-c1nc2ccc(CN3CCOCC3)cc2[nH]1)NC1CC1 [AT-9283]
